The source of these data is patent publication US20250223618A1, “METHOD FOR PRODUCING MULTI-HYDROXY DERIVATIVES OF POLYUNSATURATED FATTY ACIDS” (KOREA RESEARCH INSTITUTE OF BIOSCIENCE AND BIOTECHNOLOGY, priority 2018, published 2025).

As usually defined, the Km is the substrate concentration at which the rate is half of its maximum.

Changes are numbered by the printed parent chain. In names and notes the source's numbering stands.

Data set [1] deals with human breast cancer cells MDA-MB-231. The data set is described as follows: Proliferation of human breast cancer cells. Type of data set: cell-based. The settings on record: same concentration as in mammospheres (0 to 60 μM), FIG. 10A. As to the method:
(§1) The purified derivatives were treated to human beast cancer cells and human beast cancer-derived cancer stem cells and then the effects thereof were confirmed.
More specifically, first, human breast cancer cells MDA-MB-231 (ATCC) were incubated at a density of 1×10^6 cells in a 10 cm culture dish with a DMEM medium added with 10% fetal bovine serum (FBS, Hyclone), 100 U/ml penicillin, and 100 μg/ml of streptomycin (carbon dioxide 5%, 37° C.).

Data set [2] concerns mammospheres of the human beast cancer-derived cancer stem cells. As to the kind of experiment: Proliferation of mammospheres of breast cancer-derived cancer stem cells. In kind it is cell-based. The settings on record: treated at the concentration of 0 to 60 μM; FIG. 10A/10B. The procedure: as §1
The human breast cancer cells MDA-MB-231 were incubated at a density of 0.5 to 1×10^4 cells in a ultra-low attachment 6-well plate containing 2 ml of a Complete MammoCult™ medium (StemCell Technologies, Canada) added with 4 μg/ml of heparin, 0.48 μg/ml of hydrocortisone, 100 U/ml of penicillin, and 100 μg/ml of streptomycin (carbon dioxide 5%, 37° C.) to form mammospheres of the human beast cancer-derived cancer stem cells.

The target in data set [3] is Protein having amino acid sequence of SEQ ID NO: 1 (protein K9V_A296G; enzyme for producing di-hydroxy derivative of polyunsaturated fatty acids) (Phormidium nigroviride, UniProt K9VMV7, A296G). The settings on record: pH 8.0, 20° C. As to the method: At this time, 50 mM of a sodium phosphate buffer in the case of pH 7.0, 50 mM of a Tris-HCl buffer in the case of pH 8.0, and 50 mM of a sodium borate buffer in the case of pH 9.0 to pH 11.0 were used, respectively.

Data set [4] concerns the target T1, Protein having amino acid sequence of SEQ ID NO: 2 (protein K9V; enzyme for producing tri-hydroxy or tetra-hydroxy derivative of polyunsaturated fatty acids) (Phormidium nigroviride, UniProt K9VMV7).
T1 construct: Ni-NTA purified
T1 sequence (K9VMV7 1-571): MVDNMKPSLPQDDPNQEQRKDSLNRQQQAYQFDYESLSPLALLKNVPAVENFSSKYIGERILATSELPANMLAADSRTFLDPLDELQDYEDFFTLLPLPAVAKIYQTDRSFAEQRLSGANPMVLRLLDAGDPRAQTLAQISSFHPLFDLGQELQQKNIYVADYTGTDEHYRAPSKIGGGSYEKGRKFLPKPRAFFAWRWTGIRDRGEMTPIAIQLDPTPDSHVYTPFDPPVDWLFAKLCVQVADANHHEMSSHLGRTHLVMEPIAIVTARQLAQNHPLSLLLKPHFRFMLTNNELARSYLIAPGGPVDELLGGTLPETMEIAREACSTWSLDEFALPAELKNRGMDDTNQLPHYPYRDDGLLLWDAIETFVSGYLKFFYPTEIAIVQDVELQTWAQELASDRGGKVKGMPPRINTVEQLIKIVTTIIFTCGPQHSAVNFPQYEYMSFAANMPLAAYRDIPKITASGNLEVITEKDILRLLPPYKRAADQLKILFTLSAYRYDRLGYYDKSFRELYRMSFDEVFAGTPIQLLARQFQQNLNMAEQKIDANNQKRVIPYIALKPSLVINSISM
The data set is described as follows: Reaction rate (Km, Kcat) under optimal conditions, protein of SEQ ID NO: 2. The settings on record: pH 7.0, 30° C. Type of data set: biochemical.
From the text: Under optimal conditions confirmed in [4-1] and [4-2] above, Km and Kcat values of the protein having the amino acid sequence of SEQ ID NO: 1 and the protein having the amino acid sequence of SEQ ID NO: 2 were examined.

Data set [5] is described as follows: Effect of temperature on enzyme activity (13S-hydroxy-octadecadienoic acid formed). In kind it is biochemical. The settings on record: 100 μM linoleic acid, pH 7, 20° C. to 50° C., 30 minutes. The procedure:
(§2) In the same manner as in Example [3-1], the concentration of 13S-hydroxy-octadecadienoic acid in the reaction product was measured, and relative values thereof were compared with each other.

Data set [6] is described as follows: Effect of pH on enzyme activity (13S-hydroxy-octadecadienoic acid formed). In kind it is biochemical. To be noted: 10 KU/ml protein, 100 μM linoleic acid, 30 minutes. The procedure:
as §2

Protein having amino acid sequence of SEQ ID NO: 1 (protein K9V_A296G; enzyme for producing di-hydroxy derivative of polyunsaturated fatty acids), sequence (K9VMV7 entry or part of it A296G): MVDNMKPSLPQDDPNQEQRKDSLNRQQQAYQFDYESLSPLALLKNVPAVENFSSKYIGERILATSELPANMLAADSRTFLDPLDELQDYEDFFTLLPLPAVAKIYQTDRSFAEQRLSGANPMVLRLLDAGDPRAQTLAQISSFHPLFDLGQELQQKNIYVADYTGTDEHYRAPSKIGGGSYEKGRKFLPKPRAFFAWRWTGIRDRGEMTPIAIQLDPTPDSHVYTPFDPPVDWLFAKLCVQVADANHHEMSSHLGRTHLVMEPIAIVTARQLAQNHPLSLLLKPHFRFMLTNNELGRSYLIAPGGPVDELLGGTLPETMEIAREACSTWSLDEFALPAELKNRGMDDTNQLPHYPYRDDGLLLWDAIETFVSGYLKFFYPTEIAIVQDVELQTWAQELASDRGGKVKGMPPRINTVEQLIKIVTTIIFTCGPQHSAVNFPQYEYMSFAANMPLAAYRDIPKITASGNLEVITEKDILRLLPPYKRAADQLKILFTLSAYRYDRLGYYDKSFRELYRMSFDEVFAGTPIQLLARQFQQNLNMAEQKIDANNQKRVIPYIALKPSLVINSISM

In the case of `CCC(O)/C=C/C=C/C=C/C(O)C/C=C/C/C=C/C/C=C/CCC(=O)O` (stereo not shown) [di-hydroxy derivative], in data set [1], the “proliferation of the breast cancer cells” value is “no effect”. In addition, the “proliferation of the mammospheres of the beast cancer-derived cancer stem cells” value in data set [2] is “inhibited”.

For `CCCCC/C=C\C/C=C\CCCCCCCC(=O)O` [linoleic acid], in data set [3], the Kcat was 0.392 ± 0.0167 s⁻¹ and the Km was 46.8 ± 1 µM. For the same molecule, in data set [4], the Kcat worked out at 0.0067 ± 0.00033 s⁻¹ and the Michaelis-Menten constant (Km) worked out at 79.4 ± 0.8 µM.

B1: Protein having amino acid sequence of SEQ ID NO: 1: enzyme for producing a di-hydroxy derivative of polyunsaturated fatty acids, about 65 KDa, expressed in E. coli (protein)
chain: T1 sequence (K9VMV7 1-571) with A296G
modifications: K9V_A296G
notes: enzyme for producing a di-hydroxy derivative of polyunsaturated fatty acids, about 65 KDa, expressed in E. coli
For the molecule B1, in data set [5] (50 KU/ml protein, FIG. 9A), the “temperature of better (optimal) enzyme activity” value was roughly 20 °C. Also, the “pH of better (optimal) enzyme activity” value in data set [6] (pH 7 to pH 11, 25° C., FIG. 8A) is roughly 8.0.

B2: Protein having amino acid sequence of SEQ ID NO: 2: enzyme for producing a tri-hydroxy or tetra-hydroxy derivative of polyunsaturated fatty acids, about 65 KDa, expressed in E. coli (protein)
chain: T1 sequence (K9VMV7 1-571)
modifications: enzyme (K9V)
notes: enzyme for producing a tri-hydroxy or tetra-hydroxy derivative of polyunsaturated fatty acids, about 65 KDa, expressed in E. coli
Take B2: the “temperature of better (optimal) enzyme activity” value in data set [5] (10 KU/ml protein, FIG. 9B) is roughly 30 °C. Further, in data set [6] (pH 6 to pH 11, 25° C., FIG. 8B), the “pH of better (optimal) enzyme activity” value is roughly 8.0.
